Results on 29 compounds are retold here after US9682955B2, “Quinazoline derivatives useful as CB-1 inverse agonists” (Janssen Pharmaceutica NV, priority 2014, dated 2017).

For assay [1], the target named is Human CB2R (Cannabanoid receptor 2) (Homo sapiens (Human), UniProt P34972). The assay can be described thus: CB-2 in vitro cAMP assay (HTRF). The class given is cell-based. As to conditions: mean where tested more than once. An outline of the steps:
(§1)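 HEK-293 cells stably transfected with the human receptor, plated overnight at 4E5 cells/mL. Compounds given as 1/3 serial dilutions from 10 mM DMSO stocks. Stimulation in HBSS/5 mM HEPES/0.1% BSA with 0.5 mM IBMX and forskolin (1.5 μM in buffer); cAMP measured by competitive HTRF immunoassay (d2-cAMP, cryptate anti-cAMP) against a cAMP standard curve.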

The target in assay [2] is Human CB1R (Cannabanoid receptor 1) (Homo sapiens (Human), UniProt P21554). As to the kind of experiment: CB-1 in vitro cAMP assay (HTRF). As to conditions: mean where tested more than once. The class given is cell-based. An outline of the steps:
as §1
In general terms: Changes in cAMP serve as a functional read-out for many G protein-coupled receptors.

SMILES strings stand for the structures. A value given as a limit tells only on which side of the number the result lay.

Human CB2R (Cannabanoid receptor 2), sequence (P34972 whole entry): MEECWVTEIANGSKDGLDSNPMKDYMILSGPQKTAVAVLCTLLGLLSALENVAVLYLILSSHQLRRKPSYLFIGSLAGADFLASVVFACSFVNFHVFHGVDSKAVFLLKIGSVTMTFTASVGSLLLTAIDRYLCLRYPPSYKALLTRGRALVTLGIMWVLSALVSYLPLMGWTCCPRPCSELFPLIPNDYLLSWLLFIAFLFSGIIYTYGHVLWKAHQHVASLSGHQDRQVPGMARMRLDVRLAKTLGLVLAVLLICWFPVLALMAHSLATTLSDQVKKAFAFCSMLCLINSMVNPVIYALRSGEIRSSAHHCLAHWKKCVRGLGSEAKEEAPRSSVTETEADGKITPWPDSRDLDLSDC
Human CB1R (Cannabanoid receptor 1), sequence (P21554 whole entry): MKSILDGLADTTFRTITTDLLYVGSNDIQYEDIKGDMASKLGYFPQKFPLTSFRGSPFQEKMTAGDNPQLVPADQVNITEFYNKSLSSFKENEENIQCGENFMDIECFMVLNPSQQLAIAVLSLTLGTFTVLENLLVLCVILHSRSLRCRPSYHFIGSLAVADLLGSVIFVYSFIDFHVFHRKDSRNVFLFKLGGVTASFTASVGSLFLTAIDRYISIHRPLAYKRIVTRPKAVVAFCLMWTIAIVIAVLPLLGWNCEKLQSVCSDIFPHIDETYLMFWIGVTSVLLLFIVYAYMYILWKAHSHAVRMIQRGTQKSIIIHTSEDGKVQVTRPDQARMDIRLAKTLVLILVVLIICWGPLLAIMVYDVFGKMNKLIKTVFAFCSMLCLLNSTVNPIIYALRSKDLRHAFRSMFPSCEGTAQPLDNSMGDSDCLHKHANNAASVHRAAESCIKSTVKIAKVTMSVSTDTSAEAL

Turning to `O=S(=O)(N1CCC(Nc2nc(O)nc3ccc(C(c4ccc(Cl)cc4)c4ccc(Cl)cc4)cc23)CC1)C(F)(F)F` [Compound #114, 6-(bis(4-chlorophenyl)methyl)-4-((1-((trifluoromethyl)sulfonyl)piperidin-4-yl)amino)quinazolin-2-ol], the EC50 (as a rule, the concentration that produces a half-maximal response) came out at 5.69 µM in assay [1] and 0.032 µM in assay [2].
Take `O=S(=O)(c1ccccc1F)N1CCC(Nc2ncnc3ccc(C(c4ccc(Cl)cc4)c4ccc(Cl)cc4)cc23)CC1` [compound 124, 6-(bis(4-chlorophenyl)methyl)-N-(1-(2-fluorophenylsulfonyl)piperidin-4-yl)quinazolin-4-amine]: the results for the half-maximal effective concentration (EC50) in assay [1] and in assay [2] were 1.93 µM and 0.002 µM, respectively.
Consider `Oc1cccc(CN2CCC(Nc3ncnc4ccc(C(c5ccc(Cl)cc5)c5ccc(Cl)cc5)cc34)CC2)c1` [Compound #28, 3-((4-((6-(bis(4-chlorophenyl)methyl)quinazolin-4-yl)amino)piperidin-1-yl)methyl)phenol], for which the EC50 in assay [1] is over 10 µM; in assay [2] it was 0.069 µM.
The corresponding values for `N#CC1(c2ccccc2)CCC(Nc2ncnc3ccc(C(c4ccc(Cl)cc4)c4ccc(Cl)cc4)cc23)CC1` (stereo not shown) [Compound #118, 4-((6-(bis(4-chlorophenyl)methyl)quinazolin-4-yl)amino)-1-phenylcyclohexanecarbonitrile] are 0.196 µM and 0.011 µM.
Regarding `O=C(O)c1ccc(CNc2ncnc3ccc(C(c4ccc(Cl)cc4)c4ccc(Cl)cc4)cc23)cc1` [compound 60, 4-((6-(bis(4-chlorophenyl)methyl)quinazolin-4-ylamino)methyl)benzoic acid], the half-maximal effective concentration (EC50) was over 10 µM in assay [1] and 5.3 µM in assay [2].
As to `O=S(=O)(N1CCC(Nc2ncnc3ccc(C(c4ccc(Cl)cc4)c4nccs4)cc23)CC1)C(F)(F)F` (stereo not shown) [Compound #146, 6-((4-chlorophenyl)(thiazol-2-yl)methyl)-N-(1-((trifluoromethyl)sulfonyl)piperidin-4-yl)quinazolin-4-amine], the 50% effective concentration (EC50) was 0.978 µM in assay [1] and 0.008 µM in assay [2].
Regarding `O=C(CC(F)(F)F)N1CCC(Nc2ncnc3ccc(C(c4ccc(Cl)cc4)c4ccc(Cl)cc4)cc23)CC1` [Compound #133, 1-(4-((6-(bis(4-chlorophenyl)methyl)quinazolin-4-yl)amino)piperidin-1-yl)-3,3,3-trifluoropropan-1-one], the values for the EC50 in assay [1] and in assay [2] were 2.21 µM and 0.007 µM, respectively.
The corresponding values for `O=S(=O)(N1CCC(Nc2ncnc3ccc(C(c4ccc(Cl)cc4)c4ccc(Cl)cc4)cc23)CC1)C(F)(F)F` [Compound #145, 6-(bis(4-chlorophenyl)methyl)-N-(1-((trifluoromethyl)sulfonyl)piperidin-4-yl)quinazolin-4-amine] are 0.801 µM and 0.005 µM.
Turning to `O=S(=O)(c1ccc(O)cc1)N1CCC(Nc2ncnc3ccc(C(c4ccc(Cl)cc4)c4ccc(Cl)cc4)cc23)CC1` [Compound #8], the EC50 worked out at 0.248 µM in assay [1] and 0.008 µM in assay [2].
For the compound `NC(=O)c1cccc(CN2CCC(Nc3ncnc4ccc(C(c5ccc(Cl)cc5)c5ccc(Cl)cc5)cc34)CC2)c1` [Compound #36, 3-((4-((6-(bis(4-chlorophenyl)methyl)quinazolin-4-yl)amino)piperidin-1-yl)methyl)benzamide], the results for the EC50 in assay [1] and in assay [2] were 3.64 µM and 0.014 µM, respectively.
Turning to `O=C(O)c1ccc(CCN2CCC(Nc3ncnc4ccc(C(c5ccc(Cl)cc5)c5ccc(Cl)cc5)cc34)CC2)cc1` [Compound #10, 4-(2-(4-((6-(bis(4-chlorophenyl)methyl)quinazolin-4-yl)amino)piperidin-1-yl)ethyl)benzoic acid], the results for the EC50 in assay [1] and in assay [2] were 0.998 µM and 0.894 µM, respectively.
`O=C(CC(=O)N1CCC(Nc2ncnc3ccc(C(c4ccc(Cl)cc4)c4ccc(Cl)cc4)cc23)CC1)NCCO` [compound 82, 3-(4-(6-(bis(4-chlorophenyl)methyl)quinazolin-4-ylamino)piperidin-1-yl)-N-(2-hydroxyethyl)-3-oxopropanamide]: the EC50 in assay [1] is over 10 µM; in assay [2] it was 5.75 µM.
With `O=S(=O)(N1CCCC1)N1CCC(Nc2ncnc3ccc(C(c4ccc(Cl)cc4)c4ccc(Cl)cc4)cc23)CC1` [Compound #120, 6-(bis(4-chlorophenyl)methyl)-N-(1-(pyrrolidin-1-ylsulfonyl)piperidin-4-yl)quinazolin-4-amine], the EC50 was 2.15 µM in assay [1] and 0.004 µM in assay [2].
For the compound `O=C(O)c1cccc(CNc2ncnc3ccc(C(c4ccc(Cl)cc4)c4ccc(Cl)cc4)cc23)c1` [Compound #59, 3-(((6-(bis(4-chlorophenyl)methyl)quinazolin-4-yl)amino)methyl)benzoic acid], the EC50 in assay [1] is over 10 µM; in assay [2] it was 4.43 µM.
The like results for `O=C(O)c1ccc(C(=O)N2CCC(Nc3ncnc4ccc(C(c5ccc(Cl)cc5)c5ccc(Cl)cc5)cc34)CC2)cc1` [Compound #68, 4-(4-((6-(bis(4-chlorophenyl)methyl)quinazolin-4-yl)amino)piperidine-1-carbonyl)benzoic acid] were, in that order, over 10 µM and 0.95 µM.
Consider `FC(F)(F)c1cccc(CNc2ncnc3ccc(C(c4ccc(Cl)cc4)c4ccc(Cl)cc4)cc23)c1` [Compound #136, 6-(bis(4-chlorophenyl)methyl)-N-(3-(trifluoromethyl)benzyl)quinazolin-4-amine], for which the EC50 was over 10 µM in assay [1] and 0.003 µM in assay [2].
For `FC(F)(F)c1ccc(N2CCC(Nc3ncnc4ccc(C(c5ccc(Cl)cc5)c5ccc(Cl)cc5)cc34)CC2)cc1` [compound 129, 6-(bis(4-chlorophenyl)methyl)-N-(1-(4-(trifluoromethyl)phenyl)piperidin-4-yl)quinazolin-4-amine], the EC50 in assay [1] came to 0.072 µM; in assay [2], 0.003 µM.
Take `CCS(=O)(=O)N1CCC(Nc2ncnc3ccc(C(c4ccc(Cl)cc4)c4ccc(Cl)cc4)cc23)CC1` [compound 141, 6-(bis(4-chlorophenyl)methyl)-N-(1-(ethylsulfonyl)piperidin-4-yl) quinazolin-4-amine]: the EC50 in assay [1] worked out at 5.01 µM; in assay [2] it was 0.032 µM.
The corresponding values for `[N-]=[N+]=NCCOc1nc(NCc2ccc(C(F)(F)F)cc2)c2cc(C(c3ccc(Cl)cc3)c3ccc(Cl)cc3)ccc2n1` [Compound #75, 2-(2-azidoethoxy)-6-(bis(4-chlorophenyl)methyl)-N-(4-(trifluoromethyl)benzyl)quinazolin-4-amine] are over 10 µM and 0.005 µM.
`O=S(=O)(c1ccc(Nc2ncnc3ccc(C(c4ccc(Cl)cc4)c4ccc(Cl)cc4)cc23)cc1)C(F)(F)F` [Compound #134, 6-(bis(4-chlorophenyl)methyl)-N-(4-((trifluoromethyl)sulfonyl)phenyl)quinazolin-4-amine]: the EC50 is over 10 µM in assay [1] and 0.194 µM in assay [2].
For `FC(F)(F)c1ccc(CNc2ncnc3ccc(C(c4ccc(Cl)cc4)c4ccc(Cl)cc4)cc23)nc1` [compound 127, 6-(bis(4-chlorophenyl)methyl)-N-((5-(trifluoromethyl)pyridin-2-yl)methyl)quinazolin-4-amine], the EC50 came to 1.73 µM in assay [1] and 0.03 µM in assay [2].
As to `O=C(NCCCOc1ccc(CO)cc1)c1ccc(S(=O)(=O)N2CCC(Nc3ncnc4ccc(C(c5ccc(Cl)cc5)c5ccc(Cl)cc5)cc34)CC2)cc1` [Compound #26, 4-((4-((6-(bis(4-chlorophenyl)methyl)quinazolin-4-yl)amino)piperidin-1-yl)sulfonyl)-N-(3-(4-(hydroxymethyl)phenoxy)propyl)benzamide], the EC50 is over 10 µM in assay [1] and 0.02 µM in assay [2].
As to `CC(C)OC(=O)OCOC(=O)c1ccc(S(=O)(=O)N2CCC(Nc3ncnc4ccc(C(c5ccc(Cl)cc5)c5ccc(Cl)cc5)cc34)CC2)cc1` [Compound #64, ((Isopropoxycarbonyl)oxy)methyl 4-((4-((6-(bis(4-chlorophenyl)methyl)quinazolin-4-yl)amino)piperidin-1-yl)sulfonyl)benzoate], the EC50 is over 10 µM in assay [1] and 0.015 µM in assay [2].
As to `C[C@@H](Nc1ncnc2ccc(C(c3ccc(Cl)cc3)c3ccc(Cl)cc3)cc12)c1cccc(C(F)(F)F)c1` (single isomer, unassigned) [compound 115], the EC50 in assay [1] amounted to 8.2 µM; in assay [2], 0.034 µM.
For the compound `O=C(O)c1cccc(CN2CCC(Nc3ncnc4ccc(C(c5ccc(Cl)cc5)c5ccc(Cl)cc5)cc34)C2)c1` (stereo not shown) [compound 17, 3-((3-(6-(bis(4-chlorophenyl)methyl)quinazolin-4-ylamino)pyrrolidin-1-yl)methyl)benzoic acid], the EC50 turned out to be 7.63 µM in assay [1] and 4 µM in assay [2].
The corresponding values for `CC(=O)NCCOc1nc(NCc2ccc(C(F)(F)F)cc2)c2cc(C(c3ccc(Cl)cc3)c3ccc(Cl)cc3)ccc2n1` [Compound #69, N-(2-((6-(bis(4-chlorophenyl)methyl)-4-((4-(trifluoromethyl)benzyl)amino)quinazolin-2-yl)oxy)ethyl)acetamide] are over 10 µM and 0.098 µM.
As to `COC(=O)Cc1ccc(N2CCC(Nc3ncnc4ccc(C(c5ccc(Cl)cc5)c5ccc(Cl)cc5)cc34)CC2)cc1` [Compound #79, Methyl 2-(4-(4-((6-(bis(4-chlorophenyl)methyl)quinazolin-4-yl)amino)piperidin-1-yl)phenyl)acetate], the EC50 in assay [1] was 0.173 µM; in assay [2] it was 0.004 µM.
Regarding `O=S(=O)(c1ccccc1)N1CCC(Nc2ncnc3ccc(C(c4ccc(Cl)cc4)c4ccc(Cl)cc4)cc23)CC1` [compound 109, 6-(bis(4-chlorophenyl)methyl)-N-(1-(phenylsulfonyl)piperidin-4-yl)quinazolin-4-amine], the EC50 in assay [1] is over 10 µM; in assay [2], 0.004 µM.
As for `FC(F)(F)c1ccc(Nc2ncnc3ccc(C(c4ccc(Cl)cc4)c4ccc(Cl)cc4)cc23)cc1Cl` [Compound #122, 6-(bis(4-chlorophenyl)methyl)-N-(3-chloro-4-(trifluoromethyl)phenyl)quinazolin-4-amine], the EC50 in assay [1] is over 10 µM; in assay [2], 0.052 µM.
